Tests used:
[1] = test system: ED-1-positive macrophages; assay: Introduction of macrophages (ED-1) into bladder of SCI model, immunofluorescence; assay type: in vivo, Sprague-Dawley rats; conditions: day 7 after SCI
[2] = test system: collagen in bladder muscle; assay: Collagen content in bladder muscle (Masson's trichrome) in SCI model; assay type: in vivo, Sprague-Dawley rats; conditions: 5 mg/kg i.p., day 1 after SCI, vs normal group
[3] = test system: proNGF in Raw 264.7 macrophage cell line; assay: proNGF expression in LPS-stimulated Raw 264.7 macrophage cell line; assay type: cell-based; conditions: LPS 1 μg/ml; YJ102 30 minutes before LPS
Protocol: In order to determine whether YJ102 affected the production of proNGF as a ligand of p75, the expression of proNGF in the bladder was confirmed by RT-PCR, Western blot analysis, and immunofluorescence staining. In addition, for further verification, a macrophage cell line Raw 264.7 (Korea Cell Line Bank, Seoul, Korea) was stimulated with 1 μg/ml of LPS, and the effect of YJ102 on the production of proNGF was investigated. At this time, YJ102 was dissolved in DMSO and treated 30 minutes before LPS treatment.

[4] = test system: NGF / proNGF; assay: NGF mRNA and proNGF in bladder tissue of SCI model, RT-PCR and Western blot; assay type: in vivo, Sprague-Dawley rats; conditions: bladder tissue after SCI
Protocol: In order to confirm the effect of YJ102 (Chemical Formula 1), a compound of the present disclosure, on urinary disturbances caused by spinal cord injury, immediately after preparing the traumatic spinal cord injury (SCI) model (FIG. 1A) prepared in Example 1 above, YJ102 was dissolved in DMSO, methyl pyrrolidinone, and water (1:1.5:1) and administered intraperitoneally at 5 mg/kg, and then intraperitoneally administered at 24-hour intervals for 7 days from the next day. Thereafter, the effect of improving bladder functions was analyzed through a residual urine volume test and a urinary bladder function score (UBFS). At this time, a Vehicle group was administered with the same amount of a solution of DMSO, methyl pyrrolidinone, and water. Specifically, in order to determine the amount of urine remaining in the bladder after spinal cord injury, bladder extrusion was performed twice a day by applying pressure to the central bottom portion of the lower abdomen using the index and middle fingers to empty the bladder, and the expelled urine was collected in a catheter and its volume was recorded. […]

[5] = test system: spleen of psoriasis mouse model; assay: Spleen hypertrophy in IMQ psoriasis model; assay type: in vivo, C57BL/6 mouse; conditions: Day 6, vs Vehicle
Protocol: Psoriasis caused by excessive production of skin cells was a chronic skin disease associated with various factors, including autoimmune diseases, and its symptoms included red and thickened skin and abnormally occurring scaling. […] Specifically, the back region of a C57BL/6 mouse (male, 18 to 20 g, 8 weeks) (Daehan Biolink, Eumseong, Korea) was shaved to remove hair, and then applied with IMQ cream (83 mg/day) (5%) for consecutive 5 days from Day 0 to Day 4 to induce psoriasis-like skin inflammation, and a normal control mouse (Sham) was applied with Vaseline cream (FIG. 16A).
In order to confirm the effect of YJ102 (Chemical Formula 1), a compound of the present disclosure, on psoriasis, YJ102 dissolved in DMSO, methyl pyrrolidinone, and water (1:1.5:1) was administered intraperitoneally (5 mg/kg) for a total of 3 days on Day 2, Day 3, and Day 4, and the Vehicle group was administered in the same amount of a solution of DMSO, methyl pyrrolidinone, and water (1:1.5:1) (FIG. 16A). To assess daily skin changes, PASI scores were used for erythema and scaling. The PASI score was evaluated as a severity scale of 0 to 4, in which 0 meant none, 1 meant mild, 2 meant moderate, 3 meant severe, and 4 meant very severe. (PASI Reference: Yashpal Manchanda, Abhishek De, Sudip Das, and Disha Chakraborty. Disease Assessment in Psoriasis. Indian J Dermatol. 2023 May-June; 68 (3): 278-281.) […]

Q: Which results are given for `CCc1ccc(N(C(=O)COC)c2nc3cc(Cl)ccc3o2)cc1` [YJ102]?
A: introduction of ED-1-positive macrophages into the bladder [1]: significantly inhibited; collagen content in the bladder muscle [2]: maintained at a level almost similar to that of the normal group; mRNA expression of proNGF [3]: significantly inhibited; protein expression of proNGF [3]: significantly inhibited; NGF mRNA expression [4]: significantly inhibited; proNGF production [4]: significantly inhibited; size of the spleen [5]: significantly reduced; weight of the spleen [5]: significantly reduced

From patent US20260335293A1, “USE OF NOVEL COMPOUND FOR TREATING INTRACTABLE DISEASES” (YJ CERAPEUTICS INC., priority 2023, published 2026)
